Data published in patent US7511119B2, “PRAME peptide analogues” (MannKind Corporation, priority 2005, dated 2009).
Like-named read-outs stand apart in the source and are kept apart here. Numbered stars: 1 amine (or outer) side, 2 acyl side, 3 side chain; on linkers, the order of the positions; unused ones are H or OH. Square brackets hold non-standard residues; d marks the D form. Ends that are not written are not given here. Tyr(Me) = O-methyl-Tyr, COc1ccc(C[C@H](N[*:1])C(=O)[*:2])cc1; Phe(4-NO2) = N[C@@H](Cc1ccc([N+](=O)[O-])cc1)C(=O)O; Bta = N[C@@H](Cc1csc2ccccc12)C(=O)O; Phg = N[C@H](C(=O)O)c1ccccc1

What was measured:
[1] = molecular target: HLA-A*0201 (Homo sapiens, UniProt P04439, D140Y/D185E/D98H/E176V/E277Q/G131W/G231S/I119V/I121R/I166T/I218V/L300P/L318F/N151K/N90K/P208A/P217A/Q86G/Q94H/R138H/R169H/T345S); experiment: Peptide binding using T2 cells; details: for Relative affinity (1/RA): half maximal binding of wild-type peptide relative to analog;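 for all read-outs here: Read-out is peptide-induced stabilization of HLA-A*0201 on the cell surface, reflecting mainly Kon at limiting peptide levels and both Kon and Koff at saturating levels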
Excerpt: Thus, at limiting concentrations of peptide, it is a measurement of Kon mostly and at saturation levels of peptide it is a measurement of both Kon and Koff.
Thus, at limiting concentrations of peptide, this is a measurement of Kon mostly and at saturation levels of peptide that is a measurement of both Kon and Koff.

[2] = system: T cell lines against natural epitope SSX-241-49; experiment: Cross-reactivity and functional avidity: IFN-gamma production by T cell lines raised against natural SSX-2 41-49; assay type: cell-based, HHD transgenic mice; details: T cells raised to native peptide tested on analogs; footnote * and unit not given;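 note: analogs presented ex vivo by competent APCs to T cells specific for the non-mutated epitope, scored by lowest activating concentration, peak cytokine effect and concentration at that peak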
[3] = system: 624.38 melanoma cells; experiment: Ex vivo cytotoxicity against human tumor cells after boost with SSX-2 analogs; assay type: in vivo; details: plasmid prime, peptide boost; FIG. 12
Protocol: Eight groups of mice (n=4) were immunized with plasmid expressing SSX-241-49 natural epitope by direct inoculation into the inguinal lymph nodes with 25 ug in 25 ul of PBS/each lymph node at day 0, 3, 14 and 17. This was followed by two additional peptide boosts (similar amount) at day 28 and 31, using a negative control peptide (Melan A 26-35 “EAA”), natural peptide or analogs as shown in FIG. 9.

[4] = system: target cells coated with natural peptide; experiment: In vivo cytotoxicity against splenocytes coated with natural SSX-2 41-49 peptide (CFSE); parameters: species or system HHD mice; details: spleen and blood; targets coated with 20 μg/ml and 1 μg/ml natural peptide
Protocol: Eight groups of mice (n=4) were immunized with plasmid expressing SSX-241-49 natural epitope, by direct inoculation into the inguinal lymph nodes with 25 μg in 25 μl of PBS/each lymph node at day 0, 3, 14 and 17. This was followed by two additional peptide boosts (similar amount) at day 28 and 31, using a negative control peptide (Melan A 26-35 “EAA”), natural peptide or analogs as shown in FIG. 9.
To evaluate the in vivo response against natural peptide, splenocytes were isolated from littermate control HHD mice and incubated with 20 μg/mL or 1 μg/ml of natural peptide for 2 hours. These cells were then stained with CFSE^hi fluorescence (4.0 μM or […] for 15 minutes) and intravenously co-injected into immunized mice with an equal number of control splenocytes stained with CFSE^lo fluorescence (0.4 μM). Eighteen hours later the specific elimination of target cells was measured by removing spleen and PBMC from challenged animals and measuring CFSE fluorescence by flow cytometry. The relative depletion of the populations corresponding to peptide loaded splenocytes was calculated relative to the control (unloaded) population and expressed as % specific lysis. FIG. 10 (spleen) and 11 (blood) show the in vivo cytotoxicity elicited by the regimens described in FIG. 7.

[5] = system: native PSMA288-297 peptide; experiment: Cross-reactive immunogenicity of PSMA analogs, IFN-gamma ELISPOT; assay type: in vivo, HHD transgenic mice; details: peptide plus pI:C intranodal; FIG. 22
Protocol: Groups of HHD transgenic mice (n=8) were immunized with peptide (natural epitope PSMA288-297, or analogs bearing substitutions at primary or secondary anchor residues) by direct inoculation into the inguinal lymph nodes, with 25 μg in 25 μl of PBS+12.5 μg of pI:C to each lymph node at day 0, 3, 14 and 17.
Mice were sacrificed at 10 days after the last boost, and splenocytes prepared and assessed for IFN-γ production by ELISPOT analysis. […] At 48 hours after incubation, the assay was developed and the frequency of cytokine-producing T cells that recognized native PSMA288-297 peptide was automatically counted. The data is represented in FIG. 22 as the number of spot forming colonies/well (mean of triplicates±SD). […] To the extent that the poor immunogenicity of the native epitope reflects tolerance, the improved activity of these analogs represents tolerance breaking.

[6] = system: LnCap cells; experiment: Ex vivo cytotoxicity against PSMA+ A2+ human tumor cells; assay type: in vivo; details: splenocytes restimulated ex vivo with native PSMA288-297
Protocol: HHD transgenic mice (n=4) were immunized with PSMA288-297 peptide (25 μg in 25 μl of PBS, plus 12.5 μg of pI:C to each lymph node) at day 0, 3, 14 and 17. One week after the boost, splenocytes were stimulated ex vivo with the native PSMA288-297 peptide and tested against ^51Cr-labeled human tumor cells (PSMA^+ A2^+ LnCap cells, or as negative control, LnCap cells coated with MHC class I-blocking antibody) at various E:T ratios.
HHD transgenic mice (n=4) were immunized with plasmid expressing the PSMA288-297 epitope by direct inoculation into the inguinal lymph nodes with 25 μg in 25 μl of PBS to each lymph node at day 0, 3, 14 and 17. This was followed by two peptide boosts (same amount) at day 28 and 31, with the analog I297V. One week after the boost, splenocytes were stimulated ex vivo with the native PSMA288-297 peptide and tested overnight against ^51Cr-labeled human tumor cells (Lncap, A2^+ PSMA^+; or 624.38 A2^+ PSMA^− or control 624.28 cells A2^− PSMA^−) at various E:T ratios.

[7] = system: target cells coated with wild-type peptide; experiment: In vivo cytotoxicity against wild-type NY-ESO-1 peptide-coated target cells; parameters: species or system HHD mice; details: plasmid entrain, peptide amplify; FIGS. 15-16
Protocol: These cells were then stained with CFSE^hi and CFSE^med fluorescence (4.0 μM or 1 μM, respectively, for 15 minutes) and intravenously co-injected into immunized mice with an equal number of control splenocytes stained with CFSE^lo fluorescence (0.4 μM). Eighteen hours later the specific elimination of target cells was measured by removing the spleens and PBMC from challenged animals and measuring CFSE fluorescence by flow cytometry. The relative depletion of the populations corresponding to peptide loaded splenocytes was calculated relative to the control (unloaded) population and expressed as % specific lysis.

[8] = system: splenocytes; experiment: Ex vivo IFN-gamma production after re-stimulation with wild-type NY-ESO-1157-165 (ELISA); assay type: in vivo, mice; details: 10 μM wild-type peptide, 3 and 6 days; FIG. 17
Excerpt: Supernatants were harvested and the concentration of IFN-γ measured by ELISA.

[9] = system: T cells specific for the wild-type NY-ESO-1157-165 epitope; experiment: Cross-reactivity and functional avidity of NY-ESO-1 157-165 analogs (IFN-gamma production ex vivo); assay type: cell-based, HHD transgenic mice; details: relative to wild-type peptide; FIG. 13
[10] = system: 624.38 melanoma cells; experiment: Ex vivo cytotoxicity against PRAME+ A2+ human tumor cells; assay type: in vivo; details: splenocytes restimulated ex vivo with native PRAME peptide
Protocol: This was followed by two peptide boosts (2.5 μg) at day 28 and 31, with the analog L426Nva L433Nle.

[11] = molecular target: T1, HLA-A*0201 on T2 cells (human); experiment: T2 cells, wild-type/analog half-maximal binding
T1 construct: whole, on cells; Class I MHC on the surface of T2 cells, detected with a fluorescent anti-A2 antibody; beta2-microglobulin is not mentioned for this assay; also called MHC class I (A2 allele)

[12] = molecular target: T1, HLA-A*0201 on T2 cells; experiment: T2 cells, wild-type/analog half-maximal binding; remark: listed apart in the source

For CC[C@H](C)[C@H](NC(=O)[C@H](Cc1ccc(O)cc1)NC(=O)[C@H](Cc1ccccc1)NC(=O)[C@@H](NC(=O)[C@H](CCCCN)NC(=O)[C@H](CCC(=O)O)NC(=O)[C@H](CO)NC(=O)[C@@H](NC(=O)[C@@H](N)Cc1ccccc1)C(C)C)[C@@H](C)CC)C(=O)O [SSX2 41-49 (K41F, A42V, V49I)], the “Relative affinity (1/RA)” value [1] was 1.6, the “Cross-reactivity and fct avidity (native to analogs)*” value [2] was 0.3 and the “cytotoxicity against human tumor cells expressing natural SSX-2 41-49 epitope” value [3] was “increased cytotoxicity”.

FASEKIFYV [SSX2 41-49 (K41F)] was tested, and the “Relative affinity (1/RA)” value [1] was 1.5, the “Cross-reactivity and fct avidity (native to analogs)*” value [2] was 0.3 and the “in vivo cytotoxicity (% specific lysis), in words” value [4] was “increased activity”.

“GLPSIPVHPI (T cell peptide epitope analog) [PSMA 288-297, reference compound]” was tested, and the “binding affinity / binding profile with HLA-A*0201 on T2 cells, in words” value ([1]; compared with wild-type peptide) was “generally superior binding characteristics”, the “priming of immune response against native PSMA288-297 (IFN-γ ELISPOT), in words” value (from here on “priming of immune response”) [5] was “poorly immunogenic” and the “cytotoxicity against LnCap human tumor cells” value [6] was “able to lyse human tumor cells”.

With GLWSIPVHPI [Peptide P290W] the “priming of immune response” value [5] was “increased priming”.

“L158V C165V: NY-ESO-1 157-165 analog with L158V and C165V substitutions (SVLMWITQV; UniProt P78358 157-165, looked up, variant L158V C165V)” was tested, and the “in vivo cytotoxicity (% specific lysis), in words” value [7] was “effect in the same range with wild-type peptide” and the “IFN-gamma production upon ex vivo re-stimulation with wild-type peptide” value [8] was “increased amounts of IFN-gamma”.

“L158V: NY-ESO-1 157-165 analog with L158V substitution (SVLMWITQC; UniProt P78358 157-165, looked up, variant L158V) [Peptide L158V]” was tested, and the “activity in cross-reactivity assay (NY-ESO-1 157-165 specific T cells), in words” value (“activity in cross-reactivity assay” for short) [9] was “partial retention of activity”.

For “NY-ESO-1157-166: 10-mer of the wild-type sequence NY-ESO-1 157-166 (SLLMWITQCF; UniProt P78358 157-166, looked up, fragment) [reference compound]”, the “activity in cross-reactivity assay” value [9] was “no immunological activity”.

In the case of “S157F L158V C165V: NY-ESO-1 157-165 analog with S157F, L158V and C165V substitutions (FVLMWITQV; UniProt P78358 157-165, looked up, variant S157F L158V C165V)”, the “IFN-gamma production upon ex vivo re-stimulation with wild-type peptide” value [8] is reported as “increased amounts of IFN-gamma”.

With “S157K L158V C165V: NY-ESO-1 157-165 analog with S157K, L158V and C165V substitutions (KVLMWITQV; UniProt P78358 157-165, looked up, variant S157K L158V C165V)” the “in vivo cytotoxicity (% specific lysis), in words” value [7] was “effect in the same range with wild-type peptide”.

With “S157Y L158I C165V: NY-ESO-1 157-165 analog with S157Y, L158I and C165V substitutions (YILMWITQV; UniProt P78358 157-165, looked up, variant S157Y L158I C165V)” the “activity in cross-reactivity assay” value [9] was “increased activity relative to the wild-type peptide”.

In the case of “SLLMWITQC [Nyeso-1 157-165, reference compound]”, the “in vivo cytotoxicity (% specific lysis), in words” value [7] is reported as “variable cytotoxicity”.

“SLLQHLIGL [PRAME 425-433, reference compound]” was tested, and the “cytotoxicity against 624.38 human tumor cells” value [10] was “able to lyse human tumor cells”.

In the case of YASEKIFYV-OH [SSX2 41-49 (K41Y)], the “Relative affinity (1/RA)” value [1] is reported as 1.7, the “Cross-reactivity and fct avidity (native to analogs)*” value [2] is reported as 3 and the “in vivo cytotoxicity (% specific lysis), in words” value [4] is reported as “increased activity”.

With “{Abu}LPSIPVHPI (XLPSIPVHPI; Abu at position 288; T cell peptide epitope analog) [Peptide G288Abu, PSMA288-297 analog with G288Abu substitution]” the “priming of immune response” value [5] was “slightly higher (but significant) activity”.

B1: SSX2 41-49 (K41(O-methyl Tyr)) (peptide)
peptide: [Tyr(Me)]ASEKIFYV
With B1 the “Relative affinity (1/RA)” value [11] was 0.8 1/RA.

B2: SSX2 41-49 (K41(Phg)) (peptide)
peptide: [Phg]ASEKIFYV
B2 was tested, and the “Relative affinity (1/RA)” value [11] was 2.5 1/RA.

B3: SSX2 41-49 (K41(b-(3-benzothienyl)Ala)) (peptide)
peptide: [Bta]ASEKIFYV
For B3, the “Relative affinity (1/RA)” value [11] was 0.6 1/RA.

B4: SSX2 41-49 (A42I) (peptide)
peptide: KISEKIFYV
With B4 the “Relative affinity (1/RA)” value [12] was 1.7 1/RA.

B5: SSX2 41-49 (A42M) (peptide)
peptide: KMSEKIFYV
B5 was tested, and the “Relative affinity (1/RA)” value [12] was 1.7 1/RA.

B6: SSX2 41-49 (K41F) (peptide)
peptide: FASEKIFYV
In the case of B6, the “Relative affinity (1/RA)” value [11] is reported as 1.5 1/RA.

B7: SSX2 41-49 (K41Y) (peptide)
peptide: YASEKIFYV
With B7 the “Relative affinity (1/RA)” value [11] was 1.7 1/RA.

B8: SSX2 41-49 (K41(Phe-4NO2)) (peptide)
peptide: [Phe(4-NO2)]ASEKIFYV
notes: also called para-nitrophenylalanine analog
In the case of B8, the “Relative affinity (1/RA)” value [11] is reported as 1.1 1/RA.
